Experimental data from article PMC6721120, “Inhibitory Effects of Ginsenoside Ro on the Growth of B16F10 Melanoma via Its Metabolites” (Molecules, 2019).
≈ marks a conversion by molar mass, not a printed value. Read-outs that look alike come from different tables or passages of the source.

Key:
[1] = system: human umbilical vein endothelial cells (HUVECs); test: Tube formation assay on Matrigel; format: cell-based
Experimental: The tube formation assay was performed as previously described with some modifications. Matrigel (BD Biosciences, San Jose, CA, USA) was thawed overnight at 4 °C. Next, 50 μL Matrigel was coated on each well of the pre-chilled 96-well plates and then incubated at 37 °C for 1 h. HUVECs (5 × 10^4 cells/well) were seeded on the Matrigel and treated with various concentrations of Ro (0, 1, 3, 10, 30, 100 μg/mL), R1 (0, 5, 10, 20, 30, 40 μg/mL), IVa (0, 1, 3, 10, 30, 100 μg/mL), and E (0, 2, 4, 6, 8, 10 μg/mL). After incubation for 5 h, the formation of HUVEC tubular structures was captured using a microscope (Nikon eclipse Ti; Nikon, Tokyo, Japan). The tube length was quantified using Image-Pro Plus 6.0 software.

[2] = system: B16F10 melanoma cells; test: MTT cell viability assay; format: cell-based; details: 24 h; for IC50: Mus musculus, B16-F10, MTT, read-out: half maximal inhibitory concentration (IC50)
Experimental: In this study, Ro was dissolved in dimethyl sulfoxide (DMSO) and diluted in DMEM and then filtered using a 0.22 μm membrane. The final concentration of DMSO in cell culture medium was 0.1%, and 0.1% DMSO-treated cells were used as controls. The effect of Ro on B16F10 cell growth in vitro was performed using the MTT assay. Briefly, exponentially growing B16F10 (1 × 10^4 cells/well) cells were seeded onto 96-well plates and incubated for 24 h in complete medium. After 24 h incubation, the cells were treated with various concentrations of Ro (0, 1, 3, 10, 30, 100 μg/mL) for 24 h, and MTT (0.5%, 20 μL) was then added to each well and incubated for an additional 4 h at 37 °C. The formazan crystals were dissolved in DMSO (150 μL), and the absorbance at 490 nm was measured using a microplate reader (BioTek Epoch; BioTek, Winooski, VT, USA)
The metabolites (standard substance) of Ro were dissolved in the same manner as Ro. Briefly, IVa, R1, and E were dissolved in dimethyl sulfoxide (DMSO), diluted in DMEM, and then filtered using a 0.22 μm membrane. The final concentration of DMSO in cell culture medium was 0.1%, and 0.1% DMSO-treated cells were used as controls. The effects of IVa, R1, and E on B16F10 cell growth were evaluated using the MTT assay as previously described. The cells were treated with various concentrations of IVa (0, 1, 3, 10, 30, 100 μg/mL), R1 (0, 5, 10, 20, 30, 40 μg/mL), and E (0, 2, 4, 6 μg/mL) for 24 h. After incubation, MTT (0.5%, 20 μL) was added and incubated for 4 h at 37 °C. Then the supernatants were carefully removed, and 150 μL DMSO was added to each well. After 10 min of incubation and vibration, the absorbance was read at a wavelength of 490 nm. IC50 values were calculated using Probit Analysis with SPSS 22.0 (SPSS Inc., Chicago, IL, USA).

[3] = system: B16F10 melanoma tumour; test: Tumour xenograft experiment in B16F10 tumour-bearing mice; format: in vivo, C57BL/6J mice; details: 15 days; for mean tumour weight: model group 1.50 g; for tumour growth (tumour volume): R1 25, IVa 25, E 5, CTX 20 mg/kg intraperitoneal, vs model group, p < 0.05
Experimental: (§1) An anti-tumour assay was conducted in a mouse xenograft model. B16F10 cells were cultured in DMEM containing 10% FBS. After the collection of cells, the cells were re-suspended in normal saline to the appropriate concentrations. Next, 0.1 mL of the B16F10 cell suspension (1 × 10^6 cells) was subcutaneously injected via the right axillary region of the C57BL/6J mice. The tumour-bearing mice were randomly divided into three groups (n = 6/group): model control group, positive control group, and Ro (25 mg/kg) administration group. […] Normal and model mice were administered normal saline. The mice in the positive control group received CTX (20 mg/kg). The successive intraperitoneal injection of drugs into the mice from the day after tumour inoculation and the body weights were monitored every 2 days. After 15 days, all mice were sacrificed, and tumours were taken out and measured as previously described. The thymus and spleen were also removed and weighed to calculate the thymus and spleen indices. The tumour inhibition rate was calculated. The blood samples were collected from the retrobulbar vessels and added into tubes containing heparin. Subsequently, plasma samples were prepared by centrifugation for 10 min at 3800 rpm and stored at −80 °C for HPLC-MS analysis.
A xenograft experiment was performed using the same method as described in Section 2.2. Briefly, after the mice were inoculated with tumour cells, they were randomly divided into […] (n = 6/group): model control group, positive control group (CTX, 20 mg/kg), R1 (25 mg/kg), IVa (25 mg/kg), and E (5 mg/kg) administration groups. […] Normal and model mice were administered normal saline. Drugs were intraperitoneally injected into the mice for 15 consecutive days. Tumour volumes were measured every 2 days, and tumour growth curves were plotted. At the end of the experiment, the mice were sacrificed, and the tumour weight and tumour growth inhibition rates were calculated.

[4] = HPLC-MS determination of Ro metabolites in plasma of tumour-bearing mice; format: in vivo, C57BL/6J mice; details: plasma after 15 days Ro 25 mg/kg intraperitoneal; for detection in plasma of Ro-treated tumour-bearing mice: HPLC-MS
Experimental: B16F10 cells were cultured in DMEM containing 10% FBS. […] Normal and model mice were administered normal saline. […] The tumour inhibition rate was calculated.
Identification of the metabolites of Ro was done using the same HPLC Trap MS system as previously described. Briefly, an aliquot of 60 μL plasma samples was removed from the −80 °C storage and thawed under ambient temperature and mixed vigorously with 300 μL cold methanol. The supernatant was placed in a centrifuge tube (1500 μL) after 10 min of centrifugation at 10,000 rpm. The precipitate was washed three times using 100 μL cold methanol. All of the supernatants were combined and dried under nitrogen flow at ambient temperature. The residue was dissolved using 80 μL methanol (3 min of vortexing), and the solution was diluted in 240 μL pure water. The mixture was centrifuged at 10,000 rpm for 10 min. All of the supernatant was loaded onto a flash column (25 × 2 mm id, Chromolith; Merck, Darmstadt, Germany). This flash column was connected to an analytical column (50 × 2 mm id, Chromolith; Merck) for HPLC-MS analysis. The separation was conducted using a gradient mobile phase consisting of water (A, containing 0.01% ammonium hydroxide) and acetonitrile (B). The program of the mobile phase was as follows: 10% B for the first 5 min; then a linear gradient of 10–15% B for 5–7 min, 15–40% B for 7–40 min, and 40–70% B for 40–45 min; this composition was maintained for 45–60 min and then returned to the initial condition for 5 min. The flow rate was 0.2 mL/min. The method for the Trap MS detection was the same as previously described.

[5] = Haemolysis test; format: cell-based, Sprague Dawley rats; details: Sprague-Dawley, rat, isolated erythrocytes (2% haematocrit suspension), 37 °C, 60 min, read-out: Haemolysis Rate (%)
Experimental: (§2) To evaluate the haemocompatibility of Ro, the haemolysis test was performed as previously described. Arterial blood was obtained from healthy Sprague Dawley rats. Then erythrocytes were separated from the plasma and lymphocytes by centrifugation (3000 rpm, 5 min) at 4 °C, washed three times with normal saline, and suspended in normal physiological saline at a haematocrit of 2%. Erythrocytes were used immediately after isolation. Next, 2.5 mL erythrocyte suspension and 2.5 mL medicated saline solution were added to a 10 mL centrifuge tube. The final concentrations of Ro were 1, 3, 10, 30, and 100 μg/mL. The negative and positive controls were normal physiological saline and 0.2% Triton X-100, respectively. The samples were incubated for a specific time period at 37 °C for 60 min. Next, the tube was centrifuged at 3000 rpm for 5 min. Finally, the optical density (OD) was obtained at a wavelength of 545 nm. Three parallel samples were laid in each group. The mean value of the three samples was obtained as the group OD value. The HR was expressed as the percentage and calculated according to the equation:HR = (ODt − ODn)/(ODp − ODn) × 100%,(1) where ODt indicates the OD value of the tested group, and ODn and ODp are the OD values of the negative and positive control groups, respectively. A haemolysis rate less than 5% is regarded as a nontoxic effect level.

[6] = system: erythrocytes; test: Haemolysis test; format: cell-based, Sprague Dawley rats; details: all concentrations up to 100 μg/mL
Experimental: as §2

[7] = Experimental: as §1
[8] = 5 h incubation, IVa 1–100, R1 5–40, E 2–10 μg/mL
[9] = after 15 days intraperitoneal, CTX 20 mg/kg, Ro 25 mg/kg

In the case of `CC1(C)CC[C@]2(C(=O)O[C@@H]3O[C@H](CO)[C@@H](O)[C@H](O)[C@H]3O)CC[C@]3(C)C(=CC[C@@H]4[C@@]5(C)CC[C@H](O[C@@H]6O[C@H](C(=O)O)[C@@H](O)[C@H](O)[C@H]6O)C(C)(C)[C@@H]5CC[C@]43C)[C@@H]2C1` [IVa, chikusetsusaponin IVa], the HUVEC tube formation [1, 8] is reported as “markedly inhibited”, the viability ([2]; 100 µg/mL) is reported as “slightly decreased” and the cytotoxic effects ([2]; 1–30 µg/mL) is reported as “no cytotoxic effects”. The tumour inhibition rate ([3]; 25 mg/kg intraperitoneal) was 64.7%, the mean tumour weight ([3]; 25 mg/kg intraperitoneal) was 0.53 g and the “tumour growth (tumour volume)” value [3] was “significantly suppressed tumour growth”.
With `CC1(C)CC[C@]2(C(=O)O)CC[C@]3(C)C(=CC[C@@H]4[C@@]5(C)CC[C@H](O)C(C)(C)[C@@H]5CC[C@]43C)[C@@H]2C1` [OA, oleanolic acid, reference compound] the “detection in plasma of Ro-treated tumour-bearing mice” value (“detection in plasma” for short) [4] was “not detected”.
In the case of Glycosyl oleanolate, the “detection in plasma” value [4] is reported as “not detected”.
For `CC1(C)CC[C@]2(C(=O)O[C@@H]3O[C@H](CO)[C@@H](O)[C@H](O)[C@H]3O)CC[C@]3(C)C(=CC[C@@H]4[C@@]5(C)CC[C@H](O[C@@H]6O[C@H](C(=O)O)[C@@H](O)[C@H](O)[C@H]6O[C@@H]6O[C@H](CO)[C@@H](O)[C@H](O)[C@H]6O)C(C)(C)[C@@H]5CC[C@]43C)[C@@H]2C1` [Ro, ginsenoside Ro], the HUVEC tube formation ([1]; 100 μg/mL, 5 h) was “stimulated tube formation”, the HUVEC tube formation ([1]; 1–30 μg/mL, 5 h) was “no effects” and the “effect on B16F10 cell growth in vitro” value ([2]; 0, 1, 3, 10, 30, 100 μg/mL) was “little effect”. It also gave a hemolysis at 60 min, 1 μg/mL ([5]; 1 μg/mL) of 0.15 ± 0.13%, a hemolysis at 60 min, 3 μg/mL ([5]; 3 μg/mL) of 0.31 ± 0.13% and a hemolysis at 60 min, 10 μg/mL ([5]; 10 μg/mL) of 0.23 ± 0.23%. The hemolysis at 60 min, 30 μg/mL ([5]; 30 μg/mL) was 0.15 ± 0.13%, the hemolysis at 60 min, 100 μg/mL ([5]; 100 μg/mL) was 0.31 ± 0.35% and the “haemolysis ratio (HR%)” value [6] was “less than 5%”. For the same compound, the “Organ Indices Spleen” value ([7]; mouse, in vivo) was 3.54 ± 1.03 ×100, mg/g, the “Organ Indices Thymus” value ([7]; mouse, in vivo) was 1.67 ± 0.25 ×100, mg/g and the “Weight (g) After” value ([7]; mouse, in vivo) was 24.73 ± 1.43 g. The “Weight (g) Before” value ([7]; mouse, in vivo) was 22.91 ± 1.12 g and the tumour inhibition rate ([3]; 25 mg/kg intraperitoneal) was 75.7%.
In the case of `CC1(C)CC[C@]2(C(=O)O)CC[C@]3(C)C(=CC[C@@H]4[C@@]5(C)CC[C@H](O[C@@H]6O[C@H](C(=O)O)[C@@H](O)[C@H](O)[C@H]6O)C(C)(C)[C@@H]5CC[C@]43C)[C@@H]2C1` [E, calenduloside E], the HUVEC tube formation [1, 8] is reported as “markedly inhibited”, the IC50 [2] is reported as 2.58 µg/mL (≈ 4.08 µM) and the tumour inhibition rate ([3]; 5 mg/kg intraperitoneal) is reported as 85.4%. For the same compound, the mean tumour weight ([3]; 5 mg/kg intraperitoneal) was 0.22 g and the “tumour growth (tumour volume)” value [3] was “significantly suppressed tumour growth”.
For `O=P1(N(CCCl)CCCl)NCCCO1` (centres unmarked) [CTX, cyclophosphamide, reference compound], the “Organ Indices Spleen” value [7, 9] was 2.98 ± 0.86 ×100, mg/g, the “Organ Indices Thymus” value [7, 9] was 0.56 ± 0.09 ×100, mg/g and the “Weight (g) After” value ([7]; body weight after 15 days intraperitoneal, CTX 20 mg/kg, Ro 25 mg/kg) was 22.27 ± 1.02 g. The “Weight (g) Before” value ([7]; body weight before treatment, CTX 20 mg/kg, Ro 25 mg/kg) was 22.29 ± 0.85 g and the “tumour growth (tumour volume)” value [3] was “significantly suppressed tumour growth”.
For `CC1(C)CC[C@]2(C(=O)O)CC[C@]3(C)C(=CC[C@@H]4[C@@]5(C)CC[C@H](O[C@@H]6O[C@H](C(=O)O)[C@@H](O)[C@H](O)[C@H]6O[C@@H]6O[C@H](CO)[C@@H](O)[C@H](O)[C@H]6O)C(C)(C)[C@@H]5CC[C@]43C)[C@@H]2C1` [R1, zingibroside R1], the “plasma signal intensity of R1 relative to E” value [4] was roughly 100 fold, the “plasma signal intensity of R1 relative to IVa” value [4] was roughly 10 fold and the “plasma signal intensity of R1 relative to Ro” value [4] was “approximately two-fold”. For the same compound, the “detection in plasma” value [4] was “most abundant metabolite in the plasma”, the HUVEC tube formation [1, 8] was “markedly inhibited” and the IC50 [2] was 24.5 µg/mL (≈ 30.8 µM). For the same compound, the tumour inhibition rate ([3]; 25 mg/kg intraperitoneal) was 46.6%, the mean tumour weight ([3]; 25 mg/kg intraperitoneal) was 0.80 g and the “tumour growth (tumour volume)” value [3] was “significantly suppressed tumour growth”.
